Where “and” joins values, the source holds several entries; their conditions need not be identical. Identical values can stand only once. Like-named read-outs stand apart in the source and are kept apart here.
Legend:
Nrf2 [1] = assay: Nuclear accumulation of Nrf2 in diabetic fibroblasts (subcellular fractionation, Western blot); type: cell-based, rat; conditions: for nuclear accumulation of Nrf2: DFs, OS-inducing agent, compared with CFs, FIG. 3D
Description: To quantify responses to oxidative stress activators, fibroblasts of control and of type 2 diabetes were treated with vehicle or the OS-inducing agents ‘t-butylhydroquinone (tBHQ, 100 μM, Sigma) or oligomycin (15 μM, Sigma) for 16 h. The Cells were processed for total RNA extraction or western blotting analysis as outlined below. Both of these compounds were dissolved in ethanol with a final concentration of 0.01%. […] To analyze protein expression and phosphorylation, cells were seeded in 6-well plates and treated as described above. They were washed with ice-cold PBS, scraped into PBS, and centrifuged at 1000 rpm for 5 min. The cell pellet was then subjected to subcellular fractionation. To make the total cell lysate, the cells were lysed with RIPA buffer supplemented with a protease inhibitor mixture and a phosphatase inhibitor mixture. The protein concentration was determined using BCA protein assay reagents (Pierce). Fifty micrograms of total cell lysate (or cytosolic, or nuclear) fractions were resolved on a 10% SDS-polyacrylamide gel, Western blotted, and probed with antibodies specific for Nrf2, Kcap1 or Fyn (all from Santa Cruz) or GSK-3β, GSK-3β-phosho-Ser9 (P-GSK3-β, and phosphor GSK-α/-β (pTyr279/pTyr216) (Cell Signaling). The purity of the subcellular fractions was confirmed using the anti-LDH antibody (Chemieon International) and the anti-PCNA antibody (Santa Cruz) for cytosolic and nuclear fractions, respectively. The levels of protein on a Western blot were assessed using Quantity One Image software (Bio-Rad) and normalized against suitable loading controls, including anti-β-actin antibody for total and cytosolic fractions and anti-PCNA antibody for the nuclear fraction.

[2] = tested on: diabetic fibroblasts (DFs); assay: Superoxide generation in diabetic fibroblasts (dihydroethidium fluorescence); type: cell-based, rat; conditions: superoxide generation over a 30-minute period, FIG. 1A
Description: Primary rat fibroblasts were derived from dorsal skin biopsies performed on four diabetic Goto Kakizaki rats (DFs) and four age (12-14 months) and sex (female) matched Wistar control rats (CFs). After sterilization in povidine solution, the rat skin was washed in sterile water and rinsed in 70% ethanol in phosphate buffered saline (PBS). The epidermis and dermis were separated following overnight incubation in 0.25% Trypsin/EDTA at 4° C. Samples were washed, diced and digested for thirty min at 37° C. in collagenase type I (250 U/ml) dissolved in Dulbecco's modified Eagle medium (DMEM; Invitrogen) containing penicillin (100 U/ml), streptomycin (100 μg/ml), 2 mM L-glutamine and 26 mM HEPES. After collagenase treatment, the cells were dislodged, centrifuged and resuspended in medium supplemented with 10% fetal bovine serum. […]
To characterize oxidative conditions of cutaneous tissue, cells in 96-well plates were washed with Krebs Ringer buffer and then incubated at 37° C. in the presence of 10 μM of dihydroethidium (DHE, Molecular Probes). Fluorescence readings were taken at Ex 530 nm and Em=595 nm over a 30 min period. The determination of GSH (reduced glutathione) was achieved using the fluorescence probe monochlorobimane (MCB, Molecular Probes). Cells were incubated with 100 μl of […] MCB for 20 min at 37° C., and the fluorescence intensity was measured at Ex=390 nm and Em=460 nm. […]

NADPH oxidase = assay: NADPH-dependent superoxide generation in membrane fractions (lucigenin chemiluminescence / SOD-inhibitable cytochrome c reduction); type: biochemical, rat; conditions: membrane fractions of diabetic fibroblasts
Description: To study NADPH oxidase activity, cell pellets collected by trypsinization and suspended in 20 mM MOPS-KOH buffer, pH 7.4 containing 250 mM, 0.1 mM EDTA and a cocktail of protease inhibitors. The cells were disrupted by sonication on ice and the cell lysates were fractionated by centrifugation twice at 29,000×g for 15 min, discarding the supernatant each time. The pellet was resuspended in sucrose buffer and assayed for NADPH oxidase activity using lucigenin chemiluminescence or cytochrome c reduction-based assay. Briefly, membrane fractions (˜10 μg protein) were diluted in sucrose buffer/protease inhibitors and then lucigenin was added ((5 μM) in the presence or absence of 100 μM NADPH. The chemiluminescence was measured in 30 sec intervals over 5 min. The specificity of superoxide measured was confirmed by adding peg-SOD (10 units/ml). For the assessment of SOD-inhibitable cytochrome reduction, ˜100 μg membrane protein was added to a buffer containing cytochrome c (50 μM), NADPH (100 μM) and in the presence or absence of peg-SOD. After one hr, activity was measured as the SOD-inhibitable increase in absorbance at 550 nm (EmM=21). Assay conditions were established confirming the linearity of superoxide production with time and protein concentrations.
Following the procedures above, it was determined that superoxide generation over a 30-minute period was 55% higher in DFs relative to corresponding control values (FIG. 1A). This radical is a by-product of mitochondrial respiration and enzymatic oxidases. Accordingly, it was examined whether the observed elevation in superoxide stemmed from enhanced activity of the non-phagocytic NAD(P)H oxidase.

[3] = tested on: control fibroblasts (CFs); assay: Caspase-3-like activity (Apo-ONE caspase-3/7 assay), control fibroblasts; type: cell-based, rat
Description: (§1) To quantify relative cell death in control and diabetic fibroblasts, cells were seeded at 1×10^4 cells/well on a 96-well plate. After a 24 h incubation period, the cells were exposed to various concentrations of HP in serum-free medium at 37° C. for 2 h [lactate dehydrogenase (LDH), a marker for necrotic cell death] or for 16 h (cell viability and apoptosis assay). Quantification of cell viability and caspase-3-like activity was achieved using a Cell Counting Kit-8 (Dojindo, Kumamoto, Japan) and an Apo-ONE homogenous caspase-3/7 assay (Promega), respectively. The values obtained were normalized to the vehicle-treated cells. To measure the rate of necrotic cell death, a LDH release assay was performed using a CytoTox-ONE Homogeneous Membrane Integrity Assay kit (Promega). In some experiments, cells were pre-incubated for 1 h with 2 μg of the ATPase inhibitor oligomycin before exposure to HP.

Nrf2 [4] = assay: Nuclear accumulation of Nrf2 in control fibroblasts (subcellular fractionation, Western blot); type: cell-based, rat; conditions: CFs, OS-inducing agent, FIG. 3D
Description: (§2) To quantify responses to oxidative stress activators, fibroblasts of control and of type 2 diabetes were treated with vehicle or the OS-inducing agents ‘t-butylhydroquinone (tBHQ, 100 μM, Sigma) or oligomycin (15 μM, Sigma) for 16 h. The Cells were processed for total RNA extraction or western blotting analysis as outlined below. Both of these compounds were dissolved in ethanol with a final concentration of 0.01%. […] To analyze protein expression and phosphorylation, cells were seeded in 6-well plates and treated as described above. They were washed with ice-cold PBS, scraped into PBS, and centrifuged at 1000 rpm for 5 min. The cell pellet was then subjected to subcellular fractionation. To make the total cell lysate, the cells were lysed with RIPA buffer supplemented with a protease inhibitor mixture and a phosphatase inhibitor mixture. The protein concentration was determined using BCA protein assay reagents (Pierce). […]

[5] = tested on: control fibroblasts (CFs); assay: mRNA of Nrf2-regulated genes by real-time PCR in control fibroblasts; type: cell-based, rat
Description: (§3) To quantify responses to oxidative stress activators, fibroblasts of control and of type 2 diabetes were treated with vehicle or the OS-inducing agents ‘t-butylhydroquinone (tBHQ, 100 μM, Sigma) or oligomycin (15 μM, Sigma) for 16 h. The Cells were processed for total RNA extraction or western blotting analysis as outlined below. Both of these compounds were dissolved in ethanol with a final concentration of 0.01%. […] To measure transcription of Nrf2 target genes and NADPH oxidase genes, RNA (1 μg) was isolated from cultured fibroblasts using Trizol reagent (Invitrogen) and reverse transcribed for 1 h at 37° C. using the High Capacity cDNA Reverse Transcription Kit. Real-time quantitative RT-PCR was performed with the TaqMan Gene Expression Assay and was normalized against 18S RNA using an ABI 7900 Real-time PCR System (Applied Biosystems). Primers and probes were designed by and purchased from Applied Biosystems. Primer efficiency and specificity were verified by amplifying standard dilutions of a probe obtained by pooling all the samples and by melting curve analysis, respectively.

[6] = tested on: control fibroblasts (CFs); conditions: rat, 16 h
Description: as §1

[7] = tested on: diabetic fibroblasts (DFs); conditions: for loss in cell viability: rat, 16 h
Description: as §1

CFs and DFs = assay: Lipid peroxidation (DPPP fluorescence) in control and diabetic fibroblasts; type: cell-based, rat; conditions: stressed CFs and DFs; markedly higher in diabetic than in control cells, FIG. 1E
Description: To measure lipid peroxidation and plasma membrane redox system (PMRS) enzymes, a total of 10-20 μg of purified plasma membrane protein in a butler containing 50 mM Tris at pH 7.6, 0.2 mM NADH, and 0.1% Triton X-100 was analyzed in the spectrophotometric determination (340 nm) of the activities of NADH CoQ and NADH-ascorbate free radical reductase [also known cytochrome b5 reductase, following the respective additions of coenzyme Q (0.2 mM) and fresh ascorbate (0.4 mM). NQO1 activity was measured at 550 nm in solution buffer containing 5 mM. Tris-HCl at pH 7.6, 0.2 mM NADPH, 0.1% Triton X-100, 10 μM menadione and 75 μM cytochrome c with or without dicoumarol. Calculation of the activity of NQO1 was based on the difference between the uninhibited and the dicoumarol-inhibited samples. Cells were assessed for lipid peroxidation using the diphenyl-1-pyrenylphosphine (DPPP, Invitrogen) fluorescence-based assay. […] The plate was read for DPPP fluorescence (excitation at 340 nm and emission at 405 nm) in a 96-well fluorescence plate reader. […]
To monitor whether the diabetes-induced elevation in intracellular levels of ROS may reflect an increase in lipid peroxidation, a marker of accumulative oxidative stress (OS), the lipid peroxide formation of CFs and DFs at baseline and under stressed conditions was measured using the dye DPPP, which intercalates and reacts with lipid hydroperoxides.

Nrf2 [8] = assay: Nrf2 level in total cell lysates (Western blot); type: cell-based, rat; conditions: control and diabetic fibroblasts, to about the same extent, FIG. 3A
Description: as §2

[9] = tested on: diabetic fibroblasts (DFs); assay: mRNA of Nrf2-regulated genes by real-time PCR in diabetic fibroblasts; type: cell-based, rat; conditions: tBHQ treatment
Description: as §3

[10] = CFs / normal fibroblasts, tBHQ treatment

## Cn1sc(=O)n(Cc2ccccc2)c1=O [TDZD-8, 4-benzyl-2-methyl-1,2,4-thiadiazolidine-3,5-dione]
Nrf2 [1]; DFs pretreated 8 h with lithium chloride 50 mM or TDZD-8 50 μM, FIG. 4B only shown for lithium
  basal and inducible levels of nuclear Nrf2: partially normalized

## c1ccc(Cn2nnc3c(Sc4nc5ccccc5o4)ncnc32)cc1 [VAS2870]
[2]
  reduction of the diabetes-related increase in superoxide: about 31%
NADPH oxidase; FIG. 1B
  reduction of NADPH-dependent superoxide production (activity): about 87%

## COC(=O)[C@@H](N)CCCNC(=N)N[N+](=O)[O-] [L-NAME]
NADPH oxidase
  effect on superoxide production: did not have a significant effect

## Oc1ncnc2[nH]ncc12 [allopurinol]
NADPH oxidase
  effect on superoxide production: did not have a significant effect

## CC[C@H]1/C=C/C=C/C[C@@H](C)[C@H](O)[C@@](C)(O)C(=O)[C@@H](C)[C@H](O)[C@@H](C)C(=O)[C@@H](C)[C@H](O)[C@@H](C)/C=C/C(=O)O[C@@H]2[C@H](C)[C@H](CC1)O[C@]1(CC[C@H](C)[C@H](C[C@@H](C)O)O1)[C@H]2C [oligomycin]
[3]; CFs pre-treated with a 2-μg dose of oligomycin
  ability of HP to enhance caspase-3-like activities: suppresses
Nrf2 [4]
  Nrf2 in the nuclei-enriched fraction: markedly elevated
[5]; CFs, oligomycin treatment, FIG. 3F
  expression of Mn-SOD, catalase, GSTP1, GCLC and NQO1 mRNA: increase in the expression of Mn-SOD, catalase, GSTP1 and GCLC but not of NQO1
Nrf2 [1]
  nuclear accumulation of Nrf2: far smaller increase

## OO [HP, hydrogen peroxide]
[3]; controls (CFs), 50 μM HP
  fold increase in caspase-3-like activity: 8.2 fold
[6]; 37.5 μM
  loss in cell viability: 6%
[6]; 50 μM
  loss in cell viability: 22%
[6]; 75 μM
  loss in cell viability: 53%
[7]; 50 μM HP
  fold increase in caspase-3-like activity: 5.4 fold
[7]; 37.5 μM
  loss in cell viability: 17%
[7]; 50 μM
  loss in cell viability: 55%
[7]; 75 μM
  loss in cell viability: 78%
CFs and DFs
  lipid peroxidation (DPPP fluorescence): enhancement in lipid peroxidation

## CC(C)(C)OO [t-BHP]
CFs and DFs
  lipid peroxidation (DPPP fluorescence): enhancement in lipid peroxidation

## CC(C)(C)c1cc(O)ccc1O [tBHQ, tert-butylhydroquinone]
Nrf2 [8]
  level of Nrf2 in total cell lysates: elevates
Nrf2 [4]
  Nrf2 in the nuclei-enriched fraction: markedly elevated
[5]; [10]
  increase of GCLC mRNA expression: 5-7 fold and 5.7 fold
  increase of GSTP1 mRNA expression: 5-7 fold and 6.3 fold
  increase of NQO1 mRNA expression: 4-6 fold and 4.8 fold
  increase of catalase mRNA expression: 7-10 fold and 8.8 fold
[5]; normal fibroblasts, tBHQ treatment
  increase of GR mRNA expression: 3-4 fold
[5]; tBHQ treatment, cell type not given
  levels of Cu/Zn SOD or Mn-SOD (SOD2) mRNA: no observable changes
[9]; DFs, FIG. 3E
  percent increase of Nrf2-dependent transcripts (catalase, GSTP1, GCLC, NQO1): 32%-78%
[9]; cells with overabundant oxidative stress and impaired Nrf2 response
  upregulation of anti-oxidative enzymes: 1.5 to 2 fold
Nrf2 [1]
  nuclear accumulation of Nrf2: far smaller increase
